Measured values: US20210085686A1, “DELIVERY OF ACTIVE AGENTS USING NANOFIBER WEBS” (CorMedix Inc., priority 2015, published 2021)
≈ marks a conversion by molar mass, not a printed value.

Columns and labels:
[1] = maximum solubility of taurolidine in HFP (preliminary testing); type: physicochemical; details: organic solvent or mixture; solvent 1,1,1,3,3,3-hexafluoro-2-propanol (HFP)
Description: All of the polymers and the taurolidine were dissolved in 1,1,1,3,3,3-hexafluoro-2-propanol (HFP; Oakwood Chemical) for processing into small diameter (SD) and large diameter (LD) fibers. […] Thus, for preliminary testing, the taurolidine concentration in the electrospinning solutions was maintained at approximately 100 mg/ml.

[2] = system: Microbes; details: microbes killed and toxins inactivated; cited from earlier work

**Q.** Which solubility [1] does the source give for `O=S1(=O)CCN(CN2CCS(=O)(=O)NC2)CN1` [taurolidine, bis(1,1-dioxoperhydro-1,2,4-thiadiazinyl-4)-methane] here?
**A.** ~218 mg/mL (≈ 767 mM)

**Q.** And the “destruction time in vitro” value [2]?
**A.** 30 min
